Experiment [1] has as its system test mice (6-8-week-old athymic nu/nu on a BALB/c background). Briefly: Quantity of anti-E2 antibody (ELISA) in blood of mice injected with vaccine. It is filed as in vivo. The note with it: when used together with alum; E2 protein antigen. As for the experimental part:
5 μg of E2 protein antigen obtained in Reference Example was dissolved in 150 μl of PBS (pH 7.2), and 7 μg of the peptide of sequence of SEQ ID NO: 1 synthesized using a conventional peptide synthesis method (Houghten, R. A. et al., Nature, 354, 84(1991)) was added thereto together with alum to obtain a vaccine.
The vaccine thus obtained was injected subcutaneously into test mice (6-8-week-old athymic nu/nu on a BALB/c background). After 5 weeks, a booster injection was carried out, and after another 2 weeks, blood samples were taken from the mice.
For comparison, three different vaccine compositions were also tested as above. These comparative controls were: a vaccine containing E2 protein and alum; a vaccine containing E2 protein and the peptide of sequence of SEQ ID NO: 1; and a vaccine containing alum and the peptide of sequence of SEQ ID NO: 1. The peptides used in this Example include the D-Met residue of SEQ ID NO: 1 having CONH2 substituted for the carboxyl group. […]
Thereafter, 80 μl/well of color former (ABSI (Chemicon®)) were added to each of the 96-wells of the plate, and they were incubated at room temperature for 20 minutes. After the reaction, the O.D. of each well was determined at the wavelength of 405 nm with an ELISA reader.
(An ELISA detects its analyte on a solid surface through an enzyme-linked reagent.)

Experiment [2] has as its system monocytes, B-lymphocytes, and neutrophils. Conditions: cited from earlier work.
Experiment [3] concerns human B-lymphocyte cell line U266. Conditions: cited from earlier work.
Experiment [4] deals with specific receptor protein in the cell membrane of the U266 cell line. The note with it: cited from earlier work.
The next experiment relates to neutrophils. Conditions: stimulated neutrophils; cited from earlier work.
In the next experiment the test system is human neutrophils. The note with it: cited from earlier work.
The subject of a further experiment is phospholipase C (PLC). Conditions: in B-lymphocytes; cited from earlier work.

Turning to “Trp Lys Tyr Met Val Met [peptide of SEQ ID NO: 1]”, the “effect of promoting the vaccination efficiency” value in experiment [1] is on record as “remarkable synergistic effect”. Also, the “activation of monocytes, B-lymphocytes, and neutrophils” value in experiment [2] is reported as “activates”. In experiment [3], the “intracellular calcium [Ca2+]I release” value is reported as “induces”. Also, in experiment [4], the “binding with receptor, activation of the cellular signal pathway” value was “binding with a specific receptor protein”. In the experiment on neutrophils, the “production of active oxygen species” value is recorded as “increase”. In addition, the chemotaxis entry in the experiment on human neutrophils was “induces chemotaxis”. In the experiment with phospholipase C (PLC), the “activity of phospholipase C (PLC)” value is listed as “enhances”.

Values taken from US20030091585A1, “Vaccine composition containing a promoter peptide” (priority 2001, published 2003).
